This data set has as its target ATP-dependent translocase ABCB1 (Homo sapiens, UniProt P08183). The experiment in a line: TP_TRANSPORTER: transepithelial transport in Caco2 cells. Conditions: caco-2. The data set is classed as functional, cell-based.

Sequence of ATP-dependent translocase ABCB1 (P08183 whole entry): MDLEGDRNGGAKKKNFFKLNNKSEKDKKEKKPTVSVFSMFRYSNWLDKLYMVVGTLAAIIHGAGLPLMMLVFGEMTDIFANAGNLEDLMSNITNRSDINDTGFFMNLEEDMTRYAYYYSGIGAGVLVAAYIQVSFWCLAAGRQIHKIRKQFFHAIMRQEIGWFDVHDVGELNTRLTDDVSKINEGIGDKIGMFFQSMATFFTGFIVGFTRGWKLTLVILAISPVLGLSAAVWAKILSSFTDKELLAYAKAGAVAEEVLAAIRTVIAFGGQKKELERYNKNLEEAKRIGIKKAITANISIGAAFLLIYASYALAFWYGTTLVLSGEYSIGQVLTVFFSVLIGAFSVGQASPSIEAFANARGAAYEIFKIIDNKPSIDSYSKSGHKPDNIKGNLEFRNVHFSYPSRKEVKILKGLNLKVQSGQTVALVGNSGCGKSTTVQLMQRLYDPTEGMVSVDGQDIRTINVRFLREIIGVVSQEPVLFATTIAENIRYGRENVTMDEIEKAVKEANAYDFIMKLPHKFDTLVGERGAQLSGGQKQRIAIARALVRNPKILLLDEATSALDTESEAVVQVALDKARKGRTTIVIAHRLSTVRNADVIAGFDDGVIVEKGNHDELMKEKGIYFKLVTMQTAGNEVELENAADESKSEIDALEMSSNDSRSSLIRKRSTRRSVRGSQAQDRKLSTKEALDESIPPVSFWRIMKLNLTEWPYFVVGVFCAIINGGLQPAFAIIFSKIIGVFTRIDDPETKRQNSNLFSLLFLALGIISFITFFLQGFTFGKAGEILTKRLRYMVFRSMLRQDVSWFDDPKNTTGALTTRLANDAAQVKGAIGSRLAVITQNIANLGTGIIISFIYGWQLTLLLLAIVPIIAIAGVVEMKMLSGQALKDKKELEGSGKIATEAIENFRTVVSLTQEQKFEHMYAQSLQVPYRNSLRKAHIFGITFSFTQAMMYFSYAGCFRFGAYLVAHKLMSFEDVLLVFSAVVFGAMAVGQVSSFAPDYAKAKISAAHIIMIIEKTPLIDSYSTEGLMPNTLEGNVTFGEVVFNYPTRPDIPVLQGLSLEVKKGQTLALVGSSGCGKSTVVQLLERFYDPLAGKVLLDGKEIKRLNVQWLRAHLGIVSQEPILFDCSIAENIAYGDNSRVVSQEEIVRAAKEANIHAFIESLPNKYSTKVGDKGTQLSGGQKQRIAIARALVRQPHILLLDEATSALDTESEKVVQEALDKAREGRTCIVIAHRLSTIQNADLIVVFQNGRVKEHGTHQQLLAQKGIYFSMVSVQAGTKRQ

For the compound `COc1cc2nc(N3CCCN(C(=O)N4CCOCC4)CC3)cc(N)c2c(-c2ccc(F)cc2)c1OC`, the Activity result was “substrate [+]”.
